Results as given in US11384076B2, “Synthesis, pharmacology and use of new and selective FMS-like tyrosine kinase 3 (FLT3) FLT3 inhibitors” (UNIVERSITÄT REGENSBURG, priority 2017, dated 2022).

Key:
K562 cells = assay: Cell cycle distribution / subG1 fraction, PI staining, flow cytometry; type: cell-based, human; conditions: K562, 2, 5, 10 nM, 48 h
Description: (§1) FIG. 5: Diverse human cell lines or cells were treated with different concentrations of Marbotinib (2 nM, 5 nM or 10 nM) or 5 μM STS for 48 h. Cells were harvested and stained with PI; cell cycle distribution were analyzed by flow cytometry. Cell cycle distribution and changes of subG1 fraction are illustrated. A) K562 cell line; B) NB4 cell line; C) PBMCs; n=2
(§2) After incubation, cells were harvested on ice and fixed in 80% ethanol at −20° C. for at least 1 h. Next, the cells were incubated with RNase for 30 min at room temperature, thereafter stained with propidium iodide (PI), and measured immediately with a flow cytometer. PI intercalates into DNA. In the different phases of the cell cycle, cells incorporate various amounts of PI. This allows the quantification of the cell cycle phases. The subG1 population represents the fraction of apoptotic/necrotic cells, which contains only fragmented DNA (DNA content <2N).
(§3) Additional experiments were performed to ensure the specificity of Marbotinib. Other human blood cell lines that carry no FLT3-ITD were stimulated with Marbotinib and analyzed. K562 cells derived from a patient with chronic myeloid leukemia. These cells are precursors from erythrocytes and carry a mutation of the tyrosine kinase BCR-ABL. The NB4 cells derived from a patient with acute promyelocytic leukemia and carry a mutation in the PML-RARA fusion protein (Noack, Mahendrarajah et al. 2016). Peripheral blood mononuclear cells (PBMCs) were freshly isolated from whole blood samples and used immediately for experiments. K562, NB4 and PBMCs were stimulated with different concentrations of Marbotinib for 48 h and cell cycle distribution was analyzed by flow cytometry. Marbotinib selectively leads to an increase of subG1 fraction only in FLT3-ITD positive cell lines (FIG. 3 and FIG. 4). Cell lines or cells that carry no FLT3-ITD are not affected by Marbotinib (FIG. 5).

NB4 cells = assay: as above; type: cell-based, human; conditions: NB4, 2, 5, 10 nM, 48 h
Description: as §1, §2, §3

PBMCs [1] = assay: as above; type: cell-based, human; conditions: PBMCs, 2, 5, 10 nM, 48 h
Description: as §1, §2, §3

MV4-11 cells [2] = assay: AnnexinV FITC/PI apoptosis staining, flow cytometry; type: cell-based, human; conditions: MV4-11, 2, 5, 10 nM, 24 h
Description: (§4) FIG. 6: […] Illustrated are the different populations of living cells, early apoptosis and late apoptosis/necrosis. To elucidate the apoptotic effects the population of cells in early apoptosis and late apoptosis/necrosis is represented in a separate diagram. A) MV4-11 cell line; B) PBMCs; n=1 To analyze apoptosis cells were treated as indicated and harvested on ice. Thereafter cells were stained with Annexin V FITC for 15 min on ice in the dark. After incubation time cells were stained with PI and measured immediately on flow cytometer. An Annexin V FITC and PI single stained sample was used for compensation and an unstained control sample was used to exclude autofluorescence. […] The subG1 fraction is only a hint for apoptosis therefore we stained MV4-11 cells and PBMCs for AnnexinV FITC/PI. This staining allows a differentiation between early apoptosis and late apoptosis. […] Treating FLT3-ITD positive cells with only 5 nM Marbotinib leads to a strong induction of apoptosis without affecting other cells or cell lines tested here.

PBMCs [3] = assay: as above; type: cell-based, human; conditions: PBMCs, 2, 5, 10 nM, 24 h
Description: as §4

Ba/F3 ITD D835Y mutant = assay: FLT3 signaling in Ba/F3 mutants, Western blot; type: cell-based, murine; conditions: 5 nM, 2 h
MV4-11 cells [4] = assay: Vitality assay, DAPI staining, flow cytometry; type: cell-based, human; conditions: 1, 5, 10, 100 nM, 48 h; especially at 1 nM, 5 nM and 10 nM
Description: FIG. 14: Results of vitality assay in which MV4-11 cells were exposed to FLT3-inhibitors Marbotinib, Marbotinib Carbamate and ACC220, at different concentrations, and cell viability staining was performed.
MV4-11 cells were treated with FLT3-inhibitors at different concentrations (1 nM, 5 nM, 10 nM, 100 nM) for 48 h. Viability staining was performed using life cell staining with DAPI. Samples were analysed using flow cytometry via FACS Canto; N=3.

FLT3-ITD in MV4-11 cells = assay: Dephosphorylation of FLT3-ITD and downstream targets over time, Western blot; type: cell-based, human; conditions: 5 nM; 2 h, 6 h, 16 h, 24 h
Description: Whole cell lysates were used for SDS-Page and Western blot. The blots show dephosporylation of FLT3-ITD and some of its downstream targets, cell cycle regulators, and DNA damage regulators after treatment with FLT3-inhibitors over time. GAPDH was used as loading control. Control is indicated as CTRL. Marbotinib is indicated as FLT3i3 and Marbotinib-Carbamat is indicated as FLT3i540.

Ba/F3 ITD N676K mutant = assay: FLT3 signaling in Ba/F3 mutants, Western blot; conditions: 5 nM, 2 h
[5] = system: FLT3-ITD in MOLM-13 cells; assay: FLT3-ITD signaling, Western blot of cell lysates; conditions: MOLM-13, 5 nM

CC(C)(C)c1cc(NC(=O)Nc2ccc3oc(C(=O)c4cc5cc(O)ccc5[nH]4)cc3c2)no1 [Marbotinib, 1-(5-(tert-butyl)isoxazol-3-yl)-3-(2-(5-hydroxy-1H-indole-2-carbonyl)benzofuran-5-yl)urea]
cell cycle distribution / subG1 fraction (K562 cells): not affected | cell cycle distribution / subG1 fraction (NB4 cells): not affected | cell cycle distribution / subG1 fraction (PBMCs [1]): not affected | apoptosis (AnnexinV FITC/PI) (MV4-11 cells [2]): clear induction of apoptosis | apoptosis (AnnexinV FITC/PI) (PBMCs [3]): no changes in basal apoptosis | signal of p-FLT3 and p-STAT5 (Ba/F3 ITD D835Y mutant): strong reduction | cell viability, efficacy compared with AC220 (MV4-11 cells [4]): more effective than compound AC220 | block of FLT3-ITD and its associated signaling cascades (FLT3-ITD in MV4-11 cells): effectively block | signal of p-FLT3 (Ba/F3 ITD N676K mutant): strong reduction | signal of p-STAT5 (Ba/F3 ITD N676K mutant): strong reduction | p-STAT5 [5]: clear reduction | p-FLT3-ITD ([5]; 1 h): clearly reduces
